Reference: paper PMC5790502, “The anti-rheumatic drug, leflunomide, synergizes with MEK inhibition to suppress melanoma growth” (Oncotarget, 2017)
Blank lines part the entries; values can stand above or below the molecule they belong to.

Tests used:
A375 melanoma cells [1] = experiment: Cell viability assay (CellTiter-Glo); assay type: cell-based; settings: Homo sapiens, A-375, 72 hours treatment
Experimental: (§1) Cells that had been seeded 24 hours earlier on poly-L-lysine coated 96-well plates (Sigma-Aldrich) to subconfluency, were treated with drugs at the indicated concentrations for 72 hours. Cytochalasin D (Sigma Aldrich) was used as a positive control. All conditions were repeated in triplicate. Cell viability was determined on day 5 using the CellTiter-Glo Luminescence assay (Promega), according to the manufacturer’s instructions. Luminescence from the plate was read on a BMG LabTech Omega Series plate reader (data analyzed using OMEGA software). Cell viability was calculated as a percentage of the mean vehicle control.
(§2) For pharmacological analysis, IC50 values were generated using Prism Graphpad software (Graphpad Software, Inc.) and calculated using a nonlinear regression model. Combinatorial drug synergy was assessed by determination of combination index (CI), which was calculated using CalcuSyn (Biosoft) software using the median effects methods as described by Chou and Talalay, CI values less than 0.7 indicated synergy, 0.7–0.9 weak synergy, 0.9–1.1 additivity, 1.1–1.45 indicated weak antagonism and greater than 1.45 antagonism.

[2] = tested on: Human embryonic kidney cells (HEK-293); experiment: Cell viability assay (CellTiter-Glo); assay type: cell-based; settings: HEK293, 72 hours treatment
Experimental: as §1, §2

M202 melanoma cells = experiment: Cell viability assay (CellTiter-Glo); assay type: cell-based; settings: Homo sapiens, 72 hours treatment
Experimental: as §1, §2

M229 melanoma cells = experiment: Cell viability assay (CellTiter-Glo); assay type: cell-based; settings: Homo sapiens, 72 hours treatment
Experimental: as §1, §2

M285 melanoma cells = experiment: Cell viability assay (CellTiter-Glo); assay type: cell-based; settings: Homo sapiens, 72 hours treatment
Experimental: as §1, §2

M296 melanoma cells = experiment: Cell viability assay (CellTiter-Glo); assay type: cell-based; settings: Homo sapiens, 72 hours treatment
Experimental: as §1, §2

M375 melanoma cells = experiment: Cell viability assay (CellTiter-Glo); assay type: cell-based; settings: Homo sapiens
Experimental: as §1, §2

[3] = tested on: Primary human melanocytes adult (HEMa-LP); experiment: Cell viability assay (CellTiter-Glo); assay type: cell-based; settings: Melanocyte, 72 hours treatment
Experimental: as §1, §2

SKmel28 melanoma cells = experiment: Cell viability assay (CellTiter-Glo); assay type: cell-based; settings: Homo sapiens, SK-MEL-28, 72 hours treatment
Experimental: as §1, §2

SKmel5 melanoma cells = experiment: Cell viability assay (CellTiter-Glo); assay type: cell-based; settings: Homo sapiens; for IC50: SK-MEL-5, 72 hours treatment
Experimental: as §1, §2

[4] = tested on: rhabdomyosarcoma cells (RD-1); experiment: Cell viability assay (CellTiter-Glo); assay type: cell-based; settings: Homo sapiens; for IC50: RD1, 72 hours treatment
Experimental: as §1, §2

A375 melanoma cells [5] = experiment: Cell cycle analysis (PI staining, flow cytometry); assay type: cell-based, human; settings: 72 hours
Experimental: Cell cycle analysis was carried out as previously detailed. In brief, A375 melanoma cells were seeded in 24-well plates at a density of 4,600 cells per well. After 24 hours, the cells were treated with vehicle, 25, 50 and 100 µM of Leflunomide. After 72 hours, the cells were trypsinised and pelleted along with the culture medium. Cells were washed in PBS and fixed in ice-cold absolute ethanol. Cells were then stained with 200 µl PI/RNase A solution (Cell Signalling Technology). Cells were analyzed using a BD Accuri™ C6 flow cytometer (BD Biosciences) and the data was analyzed using the BD Accuri™ C6 Software and FlowJo (FLOWJO, LLC).

A375 melanoma cells [6] = experiment: Annexin V apoptosis assay; assay type: cell-based, human; settings: 72 hours
Experimental: Apoptosis was assessed using an Annexin V-FITC Apoptosis detection kit FITC (eBioscience), according to the manufacturer’s instructions. Briefly, cells were seeded in 24-well plates at a density of 4,600 cells per well. After 24 hours, the cells were treated with vehicle or leflunomide (at concentrations of 25, 50 and 100 µM). After 72 hours cells were trypsinised, washed in PBS and treated with fluorochrome-conjugated Annexin V and propidium iodide as indicated in the protocol. Cells were analyzed on the BD Accuri™ C6 flow cytometer and the data analyzed using the instrument software.

A375 melanoma cells [7] = experiment: Mitotracker green staining (mitochondrial mass); assay type: cell-based, human
Experimental: (§3) www.impactjournals.com/oncotarget/ Oncotarget, Supplementary Materials 2017 The anti-rheumatic drug, leflunomide, synergizes with MEK inhibition to suppress melanoma growth
(§4) Mitochondrial membrane potential [ΔΨM] assay REFERENCES
(§5) A375 melanoma cells were seeded in 12 well plates at 1. Tap WD, Gong KW, Dering J, Tseng Y, Ginther C, Pauletti a density of 10,000 cells per 1 ml of medium per well. After G, Glaspy JA, Essner R, Bollag G, Hirth P, Zhang C, Slamon 24 hours, the cells were treated with vehicle or leflunomide. DJ. […] Haluska FG, Tsao H, Wu H, Haluska FS, Lazar A, Goel V. of fresh PBS before being analyzed on the BD AccuriTM C6 Genetic alterations in signaling pathways in melanoma. […] Samples were exposed to 488 nm excitation, Cancer Res. 2006; 12:2301s–2307s. with JC-1 green monomer fluorescence detected at 533/30 3. von Euw E, Atefi M, Attar N, Chu C, Zachariah S, Burgess BL, nm in the FL1 channel and JC-1 red aggregates fluorescence Mok S, Ng C, Wong DJ, Chmielowski B, Lichter DI, Koya RC, detected at 585/20 nm in the FL2 channel. […] Data selective MEK inhibitor TAK733 against cutaneous and uveal was analyzed using the BD AccuriTM C6 Software. melanoma cell lines. […]
(§6) BD AccuriTM C6 flow cytometer (with green fluorescence 6. Atefi M, Titz B, Tsoi J, Avramis E, Le A, Ng C, Lomova A, Lassen detected in the FL1 channel). […]

A375 melanoma cells [8] = experiment: BrdU proliferation assay; assay type: cell-based, human; settings: increasing concentrations of leflunomide, 72 hours
Experimental: A375 melanoma cells were seeded in 12-well plates at a density of 10,000 cells and grown on gelatin-coated coverslips. After 24 hours leflunomide was added to cells at 12.5, 25 or 50 μM (or a vehicle control) for 72 hours. Cells were pulsed for 2 hours with BrdU (Sigma-Aldrich) at a final working concentration of 10 μM. Cells were permeabilised in 2N-HCL + 0.5% Triton X-100. Primary BrdU antibody diluted 1:100 in 1% goat serum was applied and incubated overnight at 4°C followed by Alexa Fluor-488 anti-mouse secondary antibody Cells were counterstained with DAPI. Cells were mounted onto slides using hydromount and examined under a Zeiss AxioPlan 2ie widefield microscope with an AxioCam HRm CCD camera. Images were analyzed using Image J software.

M375 melanoma tumors = experiment: Mouse xenograft study; assay type: in vivo; settings: M375 xenograft in SCID mice, selumetinib 30 mg/kg OG; for tumor volume: 12 days, leflunomide 7.5 mg/kg IP daily, vs vehicle control
Experimental: 8–10-week-old female severe immunodeficiency (SCID) mice were purchased from Charles River Laboratories. All procedures were performed under UK Home Office approved protocols and the University of East Anglia local guidelines. Experiments were conducted strictly in accordance with the locally approved animal handling protocol.
A total of 3 × 10^6 M375 melanoma cells were injected subcutaneously into 40 SCID mice. After approximately 4 weeks when the tumors were palpable, the mice were randomized into 4 arms. The 4 arms were; vehicle alone, leflunomide alone, selumetinib alone and leflunomide and selumetinib in combination. There were 10 mice in each arm. The drug regime was administered for 12 days. Leflunomide was administered by intraperitoneal (IP) injection daily at 7.5 mg/kg. Selumetinib was administered by oral gavage (OG) twice daily at 30 mg/kg for the first two days and was then delivered once daily thereafter. The tumor volume was measured every three days with calipers. Tumor volume was measured by the formula 0.52 (length × width^2). At the end of the experiment, the mice were culled and the excised tumors were weighed.

A375 melanoma cells [9] = experiment: Mitochondrial membrane potential assay (JC-1); assay type: cell-based, human; settings: rising concentrations of leflunomide (25, 50, 100 μM), 72 hours
Experimental: as §3, §4, §5, §6

phospho-ERK = experiment: Western blot of phospho-ERK; assay type: cell-based, human; settings: A375 and M202 cells; 0.1 or 1 µM selumetinib
Experimental: A375 melanoma cells were seeded and treated for 72 hours in varying drug conditions. Total protein extracts were then made using high SDS content lysis buffer (60 mM sucrose, 65 mM Tris-HCl, pH 6.8. 3% SDS). Protein concentration was determined using the DC protein assay (BIORAD). 10 μg of whole-cell protein lysate was loaded onto a 10% SDS-PAGE gel and transferred onto polyvinylidene difluoride membranes (Bio-Rad). A standard Western blot protocol was used for detection of the specific proteins as previously described.
Antibodies used included; Rabbit polyclonal phospho-ERK (1:1000, Cell Signalling Technology); Rabbit polyclonal phospho-p44/42 MAPK (1:1000, ERK1/2; Cell Signalling Technology); Mouse monoclonal HSC-70 (1:1000, Santa-Cruz Biotechnology); Rabbit polyclonal Mcl-1 (1:500, Santa-Cruz Biotechnology); Rabbit polyclonal anti-BIM (1:500, Merck-Millipore); Rabbit polyclonal PARP (1:1000, Cell Signalling Technology); Rabbit polyclonal PUMA (1:1000, Cell Signalling Technology); anti-rabbit IgG HRP linked secondary antibody (1:2000, Jackson ImmunoResearch); Anti-mouse IgG HRP linked secondary antibody (1:2000, Jackson ImmunoResearch); All anti-rabbit IgG HRP linked secondary antibody (1:2000, Cell Signalling Technology).

Structure (SMILES): Cc1oncc1C(=O)Nc1ccc(C(F)(F)F)cc1 [Leflunomide, leflunomide]
- IC50 (A375 melanoma cells [1]): 57400 nM
- IC50 [2]: 48100 nM
- IC50 (M202 melanoma cells): 68100 nM
- IC50 (M229 melanoma cells): 58200 nM
- IC50 (M285 melanoma cells): 61500 nM
- IC50 (M296 melanoma cells): 112000 nM
- IC50 (M375 melanoma cells; M375, 72 hours treatment): 64100 nM
- IC50 [3]: 148000 nM
- IC50 (SKmel28 melanoma cells): 167000 nM
- IC50 (SKmel5 melanoma cells): 122000 nM
- IC50 [4]: 84200 nM
- cells in G1 (G0-G1 phase) (A375 melanoma cells [5]; 25 μM leflunomide): 46.56%
- cells in sub-G1 (A375 melanoma cells [5]; 25 μM leflunomide): 5.36%
- reduction of percentage of cells in G2-M compared to the DMSO control (A375 melanoma cells [5]; 25 μM leflunomide): 50%
- cells in G1 (G0-G1 phase) (A375 melanoma cells [5]; 50 μM leflunomide): 55.05%
- cells in S-phase (A375 melanoma cells [5]; 50 μM leflunomide): 30.41%
- cells in sub-G1 (A375 melanoma cells [5]; 50 μM leflunomide): 9.12%
- cells in G1 (G0-G1 phase) (A375 melanoma cells [5]; 100 μM leflunomide): 73.56%
- cells in S-phase (A375 melanoma cells [5]; 100 μM leflunomide): 11.60%
- cells in sub-G1 (A375 melanoma cells [5]; 100 μM leflunomide): 11.84%
- early apoptotic cells (quadrant Q3) (A375 melanoma cells [6]; 50 μM leflunomide): 49.3%
- late apoptotic/necrotic cells (quadrant Q2) (A375 melanoma cells [6]; 50 μM leflunomide): 44.2%
- early apoptotic cells (quadrant Q3) (A375 melanoma cells [6]; 100 μM leflunomide): 28.5%
- late apoptotic/necrotic cells (quadrant Q2) (A375 melanoma cells [6]; 100 μM leflunomide): 19.1%
- viability at 25 µM (A375 melanoma cells [6]; Homo sapiens, A-375, 25μM leflunomide, read-out: viable cells (quadrant Q4)): 68%
- viability at 50 µM (A375 melanoma cells [6]; Homo sapiens, A-375, 50μM leflunomide, read-out: viable cells (quadrant Q4)): 5.91%
- viability at 100 µM (A375 melanoma cells [6]; Homo sapiens, A-375, 100μM leflunomide, read-out: viable cells (quadrant Q4)): 51.4%
- increase in the time to reach 5000 events by flow cytometry (sample cell density) (A375 melanoma cells [7]; 100 μM leflunomide relative to the 25 μM and 50 μM treated samples): 3 fold
- increase in the amount of green fluorescence (Mitotracker green) compared to the DMSO control (A375 melanoma cells [7]; 100 μM leflunomide, 72 hours): 3 fold
- number of BrdU positive (proliferating) cells (A375 melanoma cells [8]): dose-dependent decrease
- tumor volume (M375 melanoma tumors): did not reduce tumor volume
- tumor weight (M375 melanoma tumors; excised at end of 12-day treatment, leflunomide 7.5 mg/kg IP): did not reduce the tumor volume or weight
- mitochondrial membrane potential (JC-1, FL-1 channel) (A375 melanoma cells [9]): depolarized

Structure (SMILES): Cn1cnc2c(F)c(Nc3ccc(Br)cc3Cl)c(C(=O)NOCCO)cc21 [Selumetinib, selumetinib]
- IC50 (A375 melanoma cells [1]): 190 nM
- IC50 (M202 melanoma cells): 500 nM
- IC50 (M229 melanoma cells): 200 nM
- IC50 (M285 melanoma cells): 500 nM
- IC50 (M296 melanoma cells): 470 nM
- IC50 (M375 melanoma cells; M375, 72 hours treatment): 100 nM
- IC50 (M375 melanoma cells; M375 melanoma cell line, Meki alone, combinatorial viability study (Figure 4A(i))): 64 nM
- IC50 (SKmel28 melanoma cells): 430 nM
- viability at 1 µM (SKmel5 melanoma cells; SK-MEL-5, 1 μM selumetinib, read-out: cell viability (relative to vehicle control)): 51.8%
- IC50 (SKmel5 melanoma cells): 1010 nM
- viability at 1 µM ([4]; RD1, 1 μM selumetinib, read-out: cell viability (relative to vehicle control)): 55%
- IC50 [4]: 1050 nM
- amount of pERK protein (phospho-ERK): decreases in a dose-dependent manner
- tumor volume (M375 melanoma tumors): significantly reduced the average tumor volume

- IC50 (A375 melanoma cells [1]): 700 nM
- IC50 (M202 melanoma cells): 1700 nM
- IC50 (M229 melanoma cells): 300 nM
- IC50 (M296 melanoma cells): 2000 nM
- IC50 (SKmel28 melanoma cells): 800 nM
- IC50 (SKmel5 melanoma cells): 150 nM
Structure (SMILES): CCCS(=O)(=O)Nc1ccc(F)c(C(=O)c2c[nH]c3ncc(-c4ccc(Cl)cc4)cc23)c1F [Vemurafenib, vemurafenib]
